Test [1] deals with T1, Human KIF18A (amino acid sequence 1-417) (Homo sapiens, UniProt Q8NI77).
T1 construct: purchased Viva Biotech (Shanghai) Ltd
T1 sequence (Q8NI77 1-417): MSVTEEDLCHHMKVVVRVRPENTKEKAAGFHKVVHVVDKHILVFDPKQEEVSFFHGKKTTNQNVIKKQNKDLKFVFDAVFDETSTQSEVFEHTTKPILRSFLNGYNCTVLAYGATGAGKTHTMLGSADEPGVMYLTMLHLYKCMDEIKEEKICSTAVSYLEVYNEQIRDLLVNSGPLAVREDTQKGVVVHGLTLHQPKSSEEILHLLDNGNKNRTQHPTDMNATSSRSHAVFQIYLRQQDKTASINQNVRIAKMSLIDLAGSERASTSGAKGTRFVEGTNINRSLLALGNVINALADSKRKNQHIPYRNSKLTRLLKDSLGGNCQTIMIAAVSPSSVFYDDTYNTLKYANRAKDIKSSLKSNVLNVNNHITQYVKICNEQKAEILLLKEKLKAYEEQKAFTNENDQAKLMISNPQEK
Put plainly: Enzymatic activity test (ADP-Glo, microtubule-stimulated KIF18A ATPase). The test is classed as biochemical. To be noted: 60 μg/mL microtubules, 25 μM ATP, 2.5 nM KIF18A protein, 120 min at ambient temperature, read-out: KIF18A_nM. Put shortly: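 Microtubule-stimulated ATPase of KIF18A(1-417) run with 60 μg/mL microtubules, 25 μM ATP and 2.5 nM enzyme, compounds at 0-10 μM final, 120 min at ambient temperature. ADP formed was read by ADP-Glo chemiluminescence after two 30-min reagent incubations.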
A general note: ADP-Glo turns the ADP formed in a reaction into a luminescent signal.

Test [2] concerns OVCAR3 cells. Put plainly: Cell proliferation activity test in OVCAR3 cells (CyQUANT Direct). The test is classed as cell-based. To be noted: Homo sapiens, OVCAR-3, 72 h, 3 days incubation, CyQUANT fluorescence detection, read-out: OVCAR-3_IC50_nM. Put shortly:
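Log-phase cells in RPMI-1640 with 10% FBS were seeded overnight, then exposed to compound at final 0–10 μM (0.2% DMSO) for 3 days at 37 °C, 5% CO2. Proliferation was read by CyQUANT Direct fluorescence after 60 min at 37 °C.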

Test [3] deals with HT29 cells. Put plainly: CyQuant cell proliferation activity test in HT29 cells. The format is cell-based. To be noted: Homo sapiens, HT-29, 72 h, 2000 cells per well, 3 days incubation, IC50 by XLFIT, read-out: HT29_IC50_nM. Here is the method: HT29 cells were purchased from Nanjing Cobioer Biosciences Co., Ltd.; RPMI-1640 medium, fetal bovine serum, Trypsin-EDTA (0.25%), 96-well plates, and CyQuant reagents were purchased from ThermoFisher (USA); DMSO was purchased from SIGMA (USA).
Culture HT29 cells with RPMI-1640 containing 10% fetal bovine serum under the condition of 37° C. and 5% CO2. Only cells in the logarithmic growth phase can be used for the test.
Use the CyQuant reagent to detect the proliferation inhibitory activity of compounds on HT29 cells. Adjust the cell density and inoculate 100 μL per well into the 96-well plate (HT29 at 2000 cells per well), then incubate overnight under the condition of 37° C. and 5% CO2. Add compounds of various target concentrations (initial concentration of 3000 nM, 3-fold dilution, 9 concentration gradients), and make the DMSO content 0.2%. Incubate the cell plates at 37° C. and 5% CO2 for 3 days. Incubate with CyQuant reagent for 1 h, read the plate by Envision, and calculate IC50 using XLFIT.

Regarding `Cn1ccc2cc(NC(=O)c3ccc(NS(=O)(=O)CCO)cc3N3CCC4(CC3)CC4)nc(N3CCC(F)(F)CC3)c21` [Example 37], the IC50 turned out to be 121 nM in test [1], 121 nM in test [2] and 25 nM in test [3].

As for `O=C(Nc1cc2nsnc2c(N2CCC(F)(F)CC2)n1)c1ccc(NS(=O)(=O)CCO)cc1N1CCC2(CC1)CC2` [Example 39], the IC50 was 38 nM in test [1], 15 nM in test [2] and 18 nM in test [3].

On to `O=C(Nc1cc(N2CCC(F)(F)CC2)c2nsnc2c1)c1ccc(NS(=O)(=O)CCO)cc1N1CCC2(CC1)CC2` [Example 40, 2-(6-Azaspiro[2.5]oct-6-yl)-4-(2-hydroxyethylsulfonyl)aminophenyl)-N-[4-(4,4-difluoropiperidinyl)benzo[3,4-c]1,2,5-thiadiazole-5-ylcarboxamide], for which the IC50 came to 32 nM in test [1], 12 nM in test [2] and 10 nM in test [3].

`O=C(Nc1cc(N2CCC(F)(F)CC2)c2ncsc2c1)c1ccc(NS(=O)(=O)CCO)cc1N1CCC2(CC1)CC2` [Example 41, 2-{6-Azaspiro[2.5]octan-6-yl}-N-[4-(4,4-difluoropiperidin-1-yl)-1,3-benzothiazol-6-yl]-4-(2-hydroxyethanesulfonamido) benzamide]: the figures for the IC50 in test [1], in test [2] and in test [3] were 38 nM, 4 nM and 4 nM, respectively.

`Nc1nc2c(N3CCC(F)(F)CC3)c(F)c(NC(=O)c3ccc(NS(=O)(=O)CCO)cc3N3CCC4(CC3)CC4)cc2s1` [Example 42, N-[2-amino-4-(4,4-difluoropiperidin-1-yl)-5-fluoro-1,3-benzothiazol-6-yl]-2-{6-azaspiro[2.5]octan-6-yl}-4-(2-hydroxyethanesulfonamido)benzamide]: the IC50 in test [1] was found to be 213 nM; in test [2], 7 nM; in test [3], 17 nM.

As for `O=C(Nc1cc2c(c(N3CCC(F)(F)CC3)n1)C(=O)NCC2)c1ccc(NS(=O)(=O)CCO)cc1N1CCC2(CC1)CC2` [Example 43, N-(1-(4,4-difluoropiperidin-1-yl)-8-oxo-5,6,7,8-tetrahydro-2,7-naphthyridin-3-yl)-4-(2-hydroxyethylsulfonamido)-2-(6-azaspiro[2.5]octan-6-yl)benzamide], the IC50 is 28.7 nM in test [1], 7 nM in test [2] and 17 nM in test [3].

`O=C(Nc1cc2cccnc2c(N2CCC(F)(F)CC2)n1)c1ccc(NS(=O)(=O)CCO)cc1N1CCC2(CC1)CC2` [Example 44]: the figures for the IC50 in test [1], in test [2] and in test [3] were 105 nM, 21 nM and 26 nM, respectively.

As to `O=C(Nc1cc2cccnc2c(N2CCC(F)(F)CC2)n1)c1cc(F)c(NS(=O)(=O)CCO)cc1N1CCC2(CC1)CC2` [Example 45, N-(8-(4,4-difluoropiperidin-1-yl)-1,7-naphthyridin-6-yl)-5-fluoro-4-((2-hydroxyethyl)sulfonamide)-2-(6-azaspiro[2.5]octan-6-yl)benzamide], the IC50 amounted to 28 nM in test [1], 18 nM in test [2] and 31 nM in test [3].

Consider `O=C(Nc1cc2cccnc2c(N2CCC(F)(F)CC2)n1)c1c(F)cc(NS(=O)(=O)CCO)cc1N1CCC2(CC1)CC2` [Example 46, N-(8-(4,4-difluoropiperidin-1-yl)-1,7-naphthyridin-6-yl)-2-fluoro-4-((2-hydroxyethyl)sulfonamido)-6-(6-azaspiro[2.5]octan-6-yl)benzamide], for which the IC50 was 39 nM in test [1], 12 nM in test [2] and 14 nM in test [3].

As to `C[C@@H]1CN(c2nc(NC(=O)c3ccc(NS(=O)(=O)CCO)cc3N3CCC4(CC3)CC4)cc3cccnc23)CCO1` [Example 47], the IC50 in test [1] was found to be 39 nM; in test [2], 48 nM; in test [3], 40 nM.

Consider `CN1CCN(c2nc(NC(=O)c3ccc(NS(=O)(=O)CCO)cc3N3CCC4(CC3)CC4)cc3cccnc23)CC1` [Example 48], for which the IC50 in test [1] was 108 nM; in test [2], 236 nM; in test [3], 360 nM.

For `O=C(Nc1cc2cccnc2c(N2CCN(CC(F)(F)F)CC2)n1)c1ccc(NS(=O)(=O)CCO)cc1N1CCC2(CC1)CC2` [Example 49, 4-(2-hydroxyethylsulfonamido)-2-(6-azaspiro[2.5]octan-6-yl)-N-(8-(4-(2,2,2-trifluoroethyl)piperazin-1-yl)-1,7-naphthyridin-6-yl)benzamide], the figures for the IC50 in test [1], in test [2] and in test [3] were 1220 nM, 1340 nM and 1430 nM, respectively.

Turning to `Cc1ccc2cc(NC(=O)c3ccc(NS(=O)(=O)CCO)cc3N3CCC4(CC3)CC4)nc(N3CCC(F)(F)CC3)c2n1` [Example 51, N-(8-(4,4-difluoropiperidin-1-yl)-2-methyl-1,7-naphthyridin-6-yl)-4-(2-hydroxyethylsulfonamido)-2-(6-azaspiro[2.5]octan-6-yl)benzamide], the IC50 turned out to be 455 nM in test [1], 385 nM in test [2] and 387 nM in test [3].

Regarding `COc1ccc2cc(NC(=O)c3ccc(NS(=O)(=O)CCO)cc3N3CCC4(CC3)CC4)nc(N3CCC(F)(F)CC3)c2n1` [Example 52, N-(8-(4,4-difluoropiperidin-1-yl)-2-methoxy-1,7-naphthyridin-6-yl)-4-(2-hydroxyethylsulfonamido)-2-(6-azaspiro[2.5]octan-6-yl)benzamide], the IC50 in test [1] was determined as 149 nM; in test [2], 83 nM; in test [3] it was 92 nM.

For the compound `Nc1ccc2cc(NC(=O)c3ccc(NS(=O)(=O)CCO)cc3N3CCC4(CC3)CC4)nc(N3CCC(F)(F)CC3)c2n1` [Example 53, N-(2-amino-8-(4,4-difluoropiperidin-1-yl)-1,7-naphthyridin-6-yl)-4-(2-hydroxyethylsulfonamido)-2-(6-azaspiro[2.5]octan-6-yl)benzamide], the IC50 in test [1] was 94 nM; in test [2], 4 nM; in test [3], 6 nM.

For the compound `O=C(Nc1cc2ccc(O)nc2c(N2CCC(F)(F)CC2)n1)c1ccc(NS(=O)(=O)CCO)cc1N1CCC2(CC1)CC2` [Example 54, 2-{6-azaspiro[2.5]octan-6-yl}-N-[8-(4,4-difluoropiperidin-1-yl)-2-hydroxy-1,7-naphthyridin-6-yl]-4-(2-hydroxyethanesulfonamido)benzamide], the IC50 in test [1] turned out to be 27 nM; in test [2], 6 nM; in test [3] it was 18 nM.

As to `O=C(Nc1cc2ccccc2c(N2CCC(F)(F)CC2)n1)c1ccc(NS(=O)(=O)CCO)cc1N1CCC2(CC1)CC2` [Example 55], the IC50 amounted to 250 nM in test [1], 112 nM in test [2] and 89 nM in test [3].

On to `O=C(Nc1cc2ccncc2c(N2CCC(F)(F)CC2)n1)c1ccc(NS(=O)(=O)CCO)cc1N1CCC2(CC1)CC2` [Example 56], for which the figures for the IC50 in test [1], in test [2] and in test [3] were 34 nM, 12 nM and 13 nM, respectively.

On to `O=C(Nc1cc2cncnc2c(N2CCC(F)(F)CC2)n1)c1ccc(NS(=O)(=O)CCO)cc1N1CCC2(CC1)CC2` [Example 58], for which the values for the IC50 in test [1], in test [2] and in test [3] were 32 nM, 12 nM and 17 nM, respectively.

`O=C(Nc1cc2nccnc2c(N2CCC(F)(F)CC2)n1)c1ccc(NS(=O)(=O)CCO)cc1N1CCC2(CC1)CC2` [Example 59]: the IC50 in test [1] is 38 nM; in test [2], 14 nM; in test [3], 22 nM.

For `COc1cc2cc(NC(=O)c3ccc(NS(=O)(=O)CCO)cc3N3CCC4(CC3)CC4)nc(N3CCC(F)(F)CC3)c2nn1` [Example 60, N-(8-(4,4-difluoropiperidin-1-yl)-3-methoxypyrido[3,4-c]pyridazin-6-yl)-4-(2-hydroxyethylsulfonamido)-2-(6-azaspiro[2.5]octan-6-yl)benzamide], the IC50 was determined as 66 nM in test [1], 18 nM in test [2] and 13 nM in test [3].

The values are drawn from patent US20260159500A1, “KINESIN KIF18A INHIBITOR AND USE THEREOF” (SHANGHAI APEIRON THERAPEUTICS COMPANY LIMITED, priority 2022, published 2026).
